Measured values taken from BindingDB's records for doi:10.1021/bi00152a045 (Mcmaster University, 1992).
pIC50: −log10 of the molar value.

Molecular target: Protein kinase C alpha type (Rattus norvegicus, UniProt P05696)
Assay: Mixed Micelle Assay
Settings: pH 7.5; 30 °C
Description: The triton X-100 assay previously described by Bell and co-workers were used to measure enzyme activity.

Structure (SMILES) | pIC50
CC(C)CCCC(C)C1CCC2C3CC=C4CC(C(=O)NCCN(C)C)CCC4(C)C3CCC12C (stereo not drawn) [Amphiphile, III] | 3.59
CC(C)CCCC(C)C1CCC2C3CC=C4CC(C(=O)NCC[N+](C)(C)C)CCC4(C)C3CCC12C (stereo not drawn) [Amphiphile, IV] | 4.92
CC(C)CCCC(N)C1CCN2C3OC=C4CC(OC(=O)CCC(=O)NCC[N+](C)(C)C)CCC4(C)C3CCC12C (stereo not drawn) [Amphiphile, IX] | 4.23
CC(C)CCCC(N)C1CCN2C3OC=C4CC(OC(=O)CCC(=O)NCCN(C)C)CCC4(C)C3CCC12C (stereo not drawn) [Amphiphile, VIII] | 3.72
CC(C)CCCC(C)C1CCC2C3CC=C4CC(C(=O)NCCN)CCC4(C)C3CCC12C (stereo not drawn) [Amphiphile, VII] | 3.61
CC(C)CCCC(C)C1CCC2C3CC=C4CC(C(=O)OC(CN(C)C)CN(C)C)CCC4(C)C3CCC12C (stereo not drawn) [Amphiphile, V] | 3.19
CC(C)CCCC(N)C1CCN2C3OC=C4CC(OC(=O)CCC(=O)OCCN(C)CC[N+](C)(C)C)CCC4(C)C3CCC12C (stereo not drawn) [Amphiphile, XIII] | 4.70
CC(C)CCCC(N)C1CCN2C3OC=C4CC(OC(=O)CCC(=O)OCCN(C)CCN(C)C)CCC4(C)C3CCC12C (stereo not drawn) [Amphiphile, XII] | 3.79

The next lines start with the values.

pIC50 | Structure (SMILES)
4.96 | CC(C)CCCC(C)C1CCC2C3CC=C4CC(C(=O)OC(CN(C)C)C[N+](C)(C)C)CCC4(C)C3CCC12C (stereo not drawn) [Amphiphile, VI]
4.82 | CC(C)CCCC(N)C1CCN2C3OC=C4CC(OC(=O)CCC(=O)OC(CN(C)C)C[N+](C)(C)C)CCC4(C)C3CCC12C (stereo not drawn) [Amphiphile, XI]
4.40 | CCCCCCCCCCCCCCCCCCCCCCCC(=O)OC(CN(C)C)C[N+](C)(C)C (stereo not drawn) [Amphiphile, XVII]
4.59 | CCCCCCCCCCCCCCCCCCCCCC(=O)OC(CN(C)C)C[N+](C)(C)C (stereo not drawn) [Amphiphile, XVI]
3.39 | CC(C)CCCC(N)C1CCN2C3OC=C4CC(OC(=O)CCC(=O)OC(CN(C)C)CN(C)C)CCC4(C)C3CCC12C (stereo not drawn) [Amphiphile, X]
